{
  "source": "paper PMC3433420",
  "about": "(PLoS ONE, 2012)",
  "key": {"[1]": {"target": "T1, PIK3R3-N SH2 domain (Homo sapiens, UniProt Q92569)", "T1 construct": "6X His; thioredoxin; made in house; host or cells: E. coli BL21(DE3)pLysS", "assay": "FP saturation binding assay", "conditions": "high-confidence ErbB interactions", "protocol": "(§1) (See Figure 1A) Rhodamine-labeled peptides were dissolved in assay buffer (20 mM HEPES, 100 mM KCl, 0.1% Tween-20, 5 mM DTT, pH 7.8), diluted to a concentration of 20 nM, and plated into black 384-well plates (Corning, Corning, NY) at 5 µL/well using a Perkin Elmer EP3 pipetting workstation (V&P Scientific, Inc., San Diego, CA). SH2, PTB, and thioredoxin control proteins were plated into the first column of 2 mL 96-well plates (Corning) at a concentration of 20 µM and serially diluted 1∶2 into freezing buffer (300 mM NaCl, 50 mM Na2PO4, pH 8, 20% glycerol v/v) eleven times using a Tecan Freedom EVO 100 workstation (Tecan, Männedorf, Switzerland). For the interaction assay, 5 µL of each of the twelve protein concentrations was added to the peptide-containing 384-well plates via the EP3 resulting in a protein dilution range of 0.002–10 µM and a final volume of 10 µL; peptide concentration was fixed at 10 nM. Peptide/protein samples were incubated for 20 minutes at room temperature in the dark and fluorescence polarization (FP) was measured in an Analyst GT multimode reader (Molecular Devices, Sunnyvale, CA) with excitation and emission wavelengths of 530 nm and 555 nm, respectively. Experimental values were output as millipolarization (mP) units and imported into MATLAB (The MathWorks, Inc., Natick, MA) in which equation (1) was used to determine dissociation constants (KDs) for each protein/peptide pairing by least squares nonlinear regression. [drawing 1] (1)\n(§2) FP was described by the following equation: P=Iparallel-IperpendicularIparallel+Iperpendicular, where “P” denotes polarization, and “I” denotes the fluorescent intensity relative to the plane of incident light. Experimental values were output as millipolarization (mP) units and imported into MATLAB where the following equation was used to determine dissociation constants (KDs) for each protein/peptide pairing by least squares nonlinear regression:\n(§3) Pobs=Pmax∙ProteinKD+Protein [picture] (1)\n(§4) Peptides were initially tested for systematic plate effects across protein dilutions and nonspecific binding to thioredoxin by linear regression analysis and any effects were regressed out. The median baseline control polarization value for each plate was then subtracted from each data point to make each binding curve intersect at zero. Plates with excessive variation in baseline control polarizations on both a global and run-specific manner (Dixon’s Q test, p < 0.05) were excluded from further analysis. Outliers in each binding curve were identified and removed using an iterative procedure as follows. The residuals for each fit were used to calculate a global standard deviation of the residuals (GSDR) for each concentration of SH2 domain over all interactions, and individual data points with residuals < or > two GSDR from the global mean residual were flagged as outliers. The outlier with the largest residual from each interaction was removed and nonlinear regression was again performed. This procedure was repeated if additional outliers were identified for an interaction, discarding the interaction if the number of outliers exceeded three. […] In order to further control our false positive rate against hidden confounding variables producing binding artifacts, we sought to determine whether there was a significant relationship between the strength of an interaction and its technical replication rate at our stringent significance and filtering thresholds. We performed logistic regression on the proportion of successful replicates for each interaction query against KD for all interactions (Figure S15A). […] This is related to the observation that the majority of interactions detected by FP are tight (Figure S15B). With this logit model, we assigned a probability to each peptide-protein interaction in our data by using a binomial proportions test to compare the observed versus the expected replication rate at the particular KD of that interaction (Table S4). […]"}, "[2]": {"target": "T2, PLCG1-NC tandem SH2 domains (Homo sapiens, UniProt P19174)", "T2 construct": "the tandem protein was included in our analysis with all internal amino acids linking the domains; 6X His; thioredoxin; made in house; host or cells: E. coli BL21(DE3)pLysS", "T2 sequence (P19174 550-756 limits assumed)": "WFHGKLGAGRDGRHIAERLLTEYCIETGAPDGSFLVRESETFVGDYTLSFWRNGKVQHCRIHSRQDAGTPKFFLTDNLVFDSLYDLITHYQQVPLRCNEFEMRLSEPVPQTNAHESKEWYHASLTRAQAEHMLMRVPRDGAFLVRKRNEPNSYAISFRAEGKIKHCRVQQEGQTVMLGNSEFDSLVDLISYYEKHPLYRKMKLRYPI", "assay": "FP saturation binding assay", "conditions": "Protein PLCG1-NC; FP saturation binding, high-confidence ErbB interactions; mean over replicate hits", "protocol": "as §1, with “Peptide/protein samples were incubated for 20 minutes at room temperature in the dark and fluorescence polarization (FP) was measured in an Analyst GT multimode reader (Molecular Devices, Sunnyvale, CA) with excitation and emission wavelengths of 530 nm and 555 nm, respectively.” left out\nas §2, §3\nPeptides were initially tested for systematic plate effects across protein dilutions and nonspecific binding to thioredoxin by linear regression analysis and any effects were regressed out. The median baseline control polarization value for each plate was then subtracted from each data point to make each binding curve intersect at zero. Plates with excessive variation in baseline control polarizations on both a global and run-specific manner (Dixon’s Q test, p < 0.05) were excluded from further analysis. Outliers in each binding curve were identified and removed using an iterative procedure as follows. The residuals for each fit were used to calculate a global standard deviation of the residuals (GSDR) for each concentration of SH2 domain over all interactions, and individual data points with residuals < or > two GSDR from the global mean residual were flagged as outliers. The outlier with the largest residual from each interaction was removed and nonlinear regression was again performed. This procedure was repeated if additional outliers were identified for an interaction, discarding the interaction if the number of outliers exceeded three. […] In order to further control our false positive rate against hidden confounding variables producing binding artifacts, we sought to determine whether there was a significant relationship between the strength of an interaction and its technical replication rate at our stringent significance and filtering thresholds. We performed logistic regression on the proportion of successful replicates for each interaction query against KD for all interactions (Figure S15A). […] “High-confidence” FP interactions are defined as those having 1 - P(Observed Replication Rate | Expectation) > 0.5 and that have replicated at least twice across independent FP runs. […] The compiled FP data were organized into heatmaps generated by MATLAB and relative binding strength (µM). Peptides without at least one positive hit were classified as “no interaction” if there was no homologous sequence (i.e. identical at the +1 to +4 positions relative to the phosphotyrosine) that produced a positive interaction within the ErbB receptor family."}, "[3]": {"target": "PIK3R2-NC tandem SH2 domains (Homo sapiens, UniProt O00459)", "sequence (O00459 330-716 limits assumed)": "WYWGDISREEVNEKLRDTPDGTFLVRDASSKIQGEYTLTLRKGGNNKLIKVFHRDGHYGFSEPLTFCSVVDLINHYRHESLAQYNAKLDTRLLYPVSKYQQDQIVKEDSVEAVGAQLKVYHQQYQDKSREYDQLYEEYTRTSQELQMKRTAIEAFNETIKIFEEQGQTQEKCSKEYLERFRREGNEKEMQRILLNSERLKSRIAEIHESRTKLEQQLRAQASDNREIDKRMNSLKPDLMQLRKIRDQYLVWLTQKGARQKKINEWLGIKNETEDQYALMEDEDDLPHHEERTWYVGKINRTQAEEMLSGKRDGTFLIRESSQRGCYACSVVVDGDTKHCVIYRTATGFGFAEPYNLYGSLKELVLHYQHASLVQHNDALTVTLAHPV", "assay": "FP saturation binding assay"}, "[4]": {"target": "T3, PIK3R3-NC tandem SH2 domains (Homo sapiens, UniProt Q92569)", "T3 construct": "the tandem protein was included in our analysis with all internal amino acids linking the domains; 6X His; thioredoxin; made in house; host or cells: E. coli BL21(DE3)pLysS", "assay": "FP saturation binding assay", "conditions": "protein PIK3R3-NC; FP, high-confidence ErbB interactions; mean of replicate hits", "protocol": "as §1, §2, §3, §4"}, "[5]": {"system": "93 human SH2 domains and 2 phosphotyrosine binding (PTB) domains", "assay": "FP saturation binding assay, whole domain panel (protein named per line or not at all)", "conditions": "for interaction with the SH2/PTB domain panel: KD <= 20 µM counted as interaction; for SH2 domains found to interact: high-confidence interactions (Table S11, Figure S14)", "protocol": "as §1\nTo scale up the number of interaction measurements while minimizing variation introduced by human intervention, we utilized an automated robotic platform (Figure 1A; see experimental procedures and Supplementary Methods) to transfer, incubate, and measure the fluorescence polarization (FP) induced from interactions of a titration series of SH2 domains with synthetic rhodamine-labeled ErbB phosphopeptides. Experimental values were output as millipolarization (mP) units and equation (1) was used to fit apparent midpoint dissociation constants (KDs) for each protein/peptide pair using non-linear regression (see experimental procedures).\nFor this interaction analysis, we synthesized and queried the interaction of phosphopeptides corresponding to 89 of 92 ErbB family intracellular tyrosines with 93 SH2 domains. Because nine peptide sequences share 100% identity between the receptors in the 4 to 7 amino acids C-terminal to the phosphorylated tyrosine, our peptide set consisted of 81 phosphopeptides corresponding to the 89 unique tyrosine containing sequences (Table S2). This peptide set represents a 50% increase over the three PM studies performed to date. We were therefore able to obtain a more systematic and unbiased view of the relative SH2 domain recruitment potential of each receptor. Although most ErbB receptor auto-phosphorylation sites have been detected frequently by mass spectrometry because of their high relative modification stoichiometry, non-auto-phosphorylation sites have been reported less frequently in the literature (Table S3). We reasoned that many physiologically relevant and uncharacterized ErbB tyrosines of low phosphorylation stoichiometry may exist and that our comprehensive interaction analysis might implicate their importance in mediating physiological interactions. We tested the majority of interactions (7099/8160 (87.0%); Figure S3) three or more times and reported standard error for all interactions that were detected in at least three FP runs (Table S4). […] Analysis of this polarization data may be useful for inferring how SH2 proteins bind to different peptide sequences. Larger proteins and proteins binding closer to the N-terminal rhodamine tag of a given peptide would be expected to induce higher maximal polarization (the calculated maximal polarization value at infinite protein concentration) than proteins binding farther from the tag. In addition to phosphopeptides, we queried a representative set of 27 non-phosphopeptides against the entire domain set. […]"}},
  "note": "Residues, ends and D or L forms follow the SMILES beside them.",
  "data": [
    {"compound": "CC(C)C[C@H](NC(=O)CNC(=O)[C@H](CC(C)C)NC(=O)[C@H](Cc1ccc(OP(=O)(O)O)cc1)NC(=O)[C@H](CCC(=O)O)NC(=O)[C@@H]1CCCN1C(=O)[C@H](CC(N)=O)NC(=O)[C@@H](N)CCC(=O)O)C(=O)N[C@@H](CC(=O)O)C(=O)N[C@H](C(=O)N1CCC[C@H]1C(=O)N[C@H](C(=O)N[C@@H](CC(=O)O)C(=O)O)C(C)C)C(C)C", "note": "[ErbB2 1248 13-mer] (HELM PEPTIDE1{E.N.P.E.[O=C([C@H](Cc1ccc(OP(=O)(O)O)cc1)N[*:1])[*:2]].L.G.L.D.V.P.V.D}$$$$V2.0)", "values": [
      {"measurement": "Kd", "setting": "[1]; Protein PIK3R3-N, FP saturation binding, mean over replicate hits", "value": 11.2, "unit": "µM"},
      {"measurement": "Kd", "setting": "[2]", "value": 9.97, "unit": "µM"},
      {"measurement": "Kd", "setting": "[3]", "value": 9.9, "unit": "µM"}
    ]},
    {"compound": "CSCC[C@H](NC(=O)[C@H](Cc1ccc(O)cc1)NC(=O)[C@H](CCC(=O)O)NC(=O)[C@H](Cc1ccc(OP(=O)(O)O)cc1)NC(=O)[C@H](CCC(=O)O)NC(=O)[C@H](CCC(=O)O)NC(=O)[C@H](CC(=O)O)NC(=O)[C@@H](N)CCC(=O)O)C(=O)N[C@@H](CC(N)=O)C(=O)N[C@@H](CCCNC(=N)N)C(=O)N[C@@H](CCCNC(=N)N)C(=O)N[C@@H](CCCNC(=N)N)C(=O)N[C@@H](CC(=O)O)C(=O)O", "note": "[ErbB3 1197 13-mer] (HELM PEPTIDE1{E.D.E.E.[O=C([C@H](Cc1ccc(OP(=O)(O)O)cc1)N[*:1])[*:2]].E.Y.M.N.R.R.R.D}$$$$V2.0)", "values": [
      {"measurement": "Kd", "setting": "[1]; protein PIK3R3-N, FP, mean of replicate hits", "value": 1.32, "unit": "µM"},
      {"measurement": "Kd", "setting": "[4]", "value": 0.2, "unit": "µM"}
    ]},
    {"compound": "DAEEpYLVPQAFN [ErbB4 pY1022, N-terminally rhodamine-labeled 13-mer phosphopeptide]", "values": [
      {"measurement": "interaction with the SH2/PTB domain panel", "setting": "[5]", "value": "did not produce any interaction hits"}
    ]},
    {"compound": "DVWSpYGVTIWELd [ErbB4 pY906, N-terminally rhodamine-labeled 13-mer phosphopeptide]", "values": [
      {"measurement": "interaction with the SH2/PTB domain panel", "setting": "[5]", "value": "reproducibly interacted at high affinity with many SH2 domains"},
      {"measurement": "SH2 domains found to interact", "setting": "[5]", "value": "interacted with ZAP70, GRB7, and GRB10 SH2 domains"}
    ]},
    {"compound": "KIRKpYTMRRLLQd [ErbB2 pY685, N-terminally rhodamine-labeled 13-mer phosphopeptide]", "values": [
      {"measurement": "interaction with the SH2/PTB domain panel", "setting": "[5]", "value": "reproducibly interacted at high affinity with many SH2 domains"},
      {"measurement": "SH2 domains found to interact", "setting": "[5]", "value": "interacted with SOCS family SH2 domains"}
    ]}
  ]
}
